Measurements from the supplement of paper PMC8967900.

Legend:
Experiment in all cases: selective drug sensitivity score (sDSS, relative to normal bone marrow) (sDSS (score)); higher = more potent and effective on the cell line relative to normal bone marrow cells
Conditions in all cases: 72 h
SUP-B15 = tested on: SUP-B15
ALL-PO = tested on: ALL-PO
SEM cells = tested on: SEM cells
NALM-16 = tested on: NALM-16
380 = tested on: 380
KOPN-8 = tested on: KOPN-8
KASUMI-10 = tested on: KASUMI-10
MHH-CALL-4 = tested on: MHH-CALL-4
MN-60 = tested on: MN-60
MOLT-16 = tested on: MOLT-16
REH = tested on: REH
KASUMI-2 = tested on: KASUMI-2
RCH-ACV = tested on: RCH-ACV
COG-LL-319h = tested on: COG-LL-319h
HPB-ALL = tested on: HPB-ALL
NALL-1 = tested on: NALL-1
HAL-01 = tested on: HAL-01
DND-41 = tested on: DND-41
MOLT-4 = tested on: MOLT-4
MHH-CALL-2 = tested on: MHH-CALL-2
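Note: ALL cell lines in 384-well plates, five doses spanning 10,000-fold, each plate scaled between vehicle and 100 µmol/L benzalkonium chloride controls, sDSS an adapted area-under-curve metric.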

Compound	selective drug sensitivity score (SUP-B15)	selective drug sensitivity score (ALL-PO)	selective drug sensitivity score (SEM cells)	selective drug sensitivity score (NALM-16)	selective drug sensitivity score 380	selective drug sensitivity score (KOPN-8)	selective drug sensitivity score (KASUMI-10)	selective drug sensitivity score (MHH-CALL-4)	selective drug sensitivity score (MN-60)	selective drug sensitivity score (MOLT-16)	selective drug sensitivity score (REH)	selective drug sensitivity score (KASUMI-2)	selective drug sensitivity score (RCH-ACV)	selective drug sensitivity score (COG-LL-319h)	selective drug sensitivity score (HPB-ALL)	selective drug sensitivity score (NALL-1)	selective drug sensitivity score (HAL-01)	selective drug sensitivity score (DND-41)	selective drug sensitivity score (MOLT-4)	selective drug sensitivity score (MHH-CALL-2)
COc1cc2ncnc(Nc3ccc(F)c(Cl)c3)c2cc1OCCCN1CCOCC1 [Gefitinib] (top concentration 10000 nM)	1.56	4.16	0.66	-3.04	-3.04	2.96	1.36	-3.04	0.66	3.36	2.36	-3.04	1.66	5.66	-1.14	1.06	-0.14	1.16	-0.34	1.86
CN1CC[C@@H](NC(=O)Nc2ccc(C#N)cc2)C[C@@H]1c1nc2ccccc2[nH]1 [Glasdegib] (top concentration 1000 nM)	0	0	0	0	0	0	0	0	4.7	0	1.6	11.9	0	4.1	0.1	0.1	0	2.9	0	0
CN1CCN(C2CCN(C(=O)Nc3cc(Oc4ccc(NC(=O)C5(C(=O)Nc6ccc(F)cc6)CC5)c(F)c4)ccn3)CC2)CC1 [Golvatinib] (top concentration 2500 nM)	3.56	3.16	6.56	-0.14	-0.14	-0.14	3.26	-0.14	-0.14	-0.14	2.46	-0.14	4.26	-0.14	6.76	-0.14	0.76	-0.04	-0.14	0.26
CC(C)C[C@H](NC(=O)[C@@H](COC(C)(C)C)NC(=O)[C@H](Cc1ccc(O)cc1)NC(=O)[C@H](CO)NC(=O)[C@H](Cc1c[nH]c2ccccc12)NC(=O)[C@H](Cc1cnc[nH]1)NC(=O)[C@@H]1CCC(=O)N1)C(=O)N[C@@H](CCCNC(=N)N)C(=O)N1CCC[C@H]1C(=O)NNC(N)=O [Goserelin] (top concentration 10000 nM)	-0.06	-0.06	-0.06	-0.06	-0.06	-0.06	-0.06	0.14	-0.06	0.14	0.14	-0.06	-0.06	4.84	-0.06	-0.06	-0.06	-0.06	-0.06	-0.06
O=S(=O)(c1cccc2c(O)nccc12)N1CCCNCC1 [Hydroxyfasudil] (top concentration 19000 nM)	-0.52	-0.92	0.08	-0.92	3.98	0.78	-0.82	-0.12	-0.92	-0.02	-0.62	0.08	-0.72	-0.72	-0.92	2.58	1.38	-0.92	-0.72	5.88
COc1cc(C(=O)O)ccc1NC(=O)[C@@H]1N[C@@H](CC(C)(C)C)[C@](C#N)(c2ccc(Cl)cc2F)[C@H]1c1cccc(Cl)c1F [Idasanutlin] (top concentration 10000 nM)	29.3	-12.5	-10	-8.74	23.5	25.7	18.4	12.3	0.46	21.3	8.16	18.2	21	17	-8.54	-8.44	19.1	-11	20.7	18.7
CCN1CCN(c2ccc(Nc3cc(N(C)C(=O)Nc4c(Cl)c(OC)cc(OC)c4Cl)ncn3)cc2)CC1 [Infigratinib] (top concentration 1000 nM)	0	0	0	0	0	0	0	0	0	0	0	0	0	0	0	0	0	0	0	0
O=C(Nc1cnn2ccc(N3CCC[C@@H]3c3cc(F)ccc3F)nc12)N1CC[C@H](O)C1 [Larotrectinib] (top concentration 1000 nM)	0.08	-0.62	-0.62	-0.62	-0.62	-0.62	-0.62	-0.62	-0.62	-0.62	-0.62	-0.62	1.48	3.78	4.18	-0.62	0.68	-0.62	-0.62	-0.52
C[C@]1(O)C[C@@H](c2nc(-c3ccc4ccc(-c5ccccc5)nc4c3)c3c(N)nccn32)C1 [Linsitinib] (top concentration 10000 nM)	-3.18	3.92	0.62	-3.18	1.72	-0.38	-2.28	0.22	-3.18	-3.18	-3.18	-0.28	0.72	-1.78	2.22	-0.08	-1.78	4.82	-2.58	2.32
